# Species on record: Rattus norvegicus
# Assay: DrugMatrix - Regimen: Daily Repeat
# Format: toxicity, organism-based, Sprague-Dawley
# Parameters: regimen Daily Repeat, gender Male, age 6-8 weeks
# Conditions: in vivo, po, 75 mg/kg, route oral GAVAGE, dose level High, vehicle .5 % CMC; for ABSOLUTE BASOPHIL / ABSOLUTE EOSINOPHIL / ABSOLUTE LYMPHOCYTE / ABSOLUTE MONOCYTE / ABSOLUTE SEGMENTED NEUTROPHIL / BASOPHIL / EOSINOPHIL / ERYTHROCYTE COUNT / HEMATOCRIT / HEMOGLOBIN / LEUKOCYTE COUNT / LYMPHOCYTE / MEAN CORPUSCULAR HEMOGLOBIN / MEAN CORPUSCULAR HEMOGLOBIN CONCENTRATION / MEAN CORPUSCULAR VOLUME / MONOCYTE / NEUTROPHIL / NUCLEATED RED BLOOD CELLS / PLATELET COUNT: tissue Blood; for ALANINE AMINOTRANSFERASE / ALBUMIN / ALKALINE PHOSPHATASE / ASPARTATE AMINOTRANSFERASE / BLOOD UREA NITROGEN / CARBON DIOXIDE / CHLORIDE / CHOLESTEROL / CREATININE / GLUCOSE / LACTATE DEHYDROGENASE / LIPASE / PHOSPHORUS / POTASSIUM / SODIUM / TOTAL BILIRUBIN / TOTAL PROTEIN / URIC ACID: tissue Plasma
structure (smiles),measurement,setting,value
Nc1ccc(Cl)cc1 [4-CHLOROANILINE],ABSOLUTE BASOPHIL,"120 h, time 5 day",0 CELLS/uL
same,ABSOLUTE EOSINOPHIL,"120 h, time 5 day",666.67 CELLS/uL
same,ABSOLUTE LYMPHOCYTE,"120 h, time 5 day",19854.67 CELLS/uL
same,ABSOLUTE MONOCYTE,"120 h, time 5 day",430.67 CELLS/uL
same,ABSOLUTE SEGMENTED NEUTROPHIL,"120 h, time 5 day",5848 CELLS/uL
same,BASOPHIL,"120 h, time 5 day",0%
same,EOSINOPHIL,"120 h, time 5 day",2.33%
same,ERYTHROCYTE COUNT,"120 h, time 5 day",4.48 x10E6/uL
same,HEMATOCRIT,"120 h, time 5 day",32.57%
same,HEMOGLOBIN,"120 h, time 5 day",13.73 G/DL
same,LEUKOCYTE COUNT,"120 h, time 5 day",26.8 x10E3/uL
same,LYMPHOCYTE,"120 h, time 5 day",74%
same,MEAN CORPUSCULAR HEMOGLOBIN,"120 h, time 5 day",30.77 pg
same,MEAN CORPUSCULAR HEMOGLOBIN CONCENTRATION,"120 h, time 5 day",42.2 G/DL
same,MEAN CORPUSCULAR VOLUME,"120 h, time 5 day",72.87 fL
same,MONOCYTE,"120 h, time 5 day",1.67%
same,NEUTROPHIL,"120 h, time 5 day",22%
same,NUCLEATED RED BLOOD CELLS,"120 h, time 5 day",1.33 /100WBC
same,PLATELET COUNT,"120 h, time 5 day",1147 x10E3/uL
same,ALANINE AMINOTRANSFERASE,"120 h, time 5 day",61.33 u/L
same,ALBUMIN,"120 h, time 5 day",4.23 G/DL
same,ALKALINE PHOSPHATASE,"120 h, time 5 day",360.33 u/L
same,ASPARTATE AMINOTRANSFERASE,"120 h, time 5 day",93.67 u/L
same,BLOOD UREA NITROGEN,"120 h, time 5 day",13 mg/dL
same,CARBON DIOXIDE,"120 h, time 5 day",31.33 mmol/L
same,CHLORIDE,"120 h, time 5 day",102.33 MEQ/L
same,CHOLESTEROL,"120 h, time 5 day",64.67 mg/dL
same,CREATININE,"120 h, time 5 day",0.2 mg/dL
same,GLUCOSE,"120 h, time 5 day",157.33 mg/dL
same,LACTATE DEHYDROGENASE,"120 h, time 5 day",180.67 u/L
same,LIPASE,"120 h, time 5 day",9 u/L
same,PHOSPHORUS,"120 h, time 5 day",11.23 mg/dL
same,POTASSIUM,"120 h, time 5 day",6.43 MEQ/L
same,SODIUM,"120 h, time 5 day",148.33 MEQ/L
same,TOTAL BILIRUBIN,"120 h, time 5 day",0.43 mg/dL
same,TOTAL PROTEIN,"120 h, time 5 day",6.23 G/DL
same,URIC ACID,"120 h, time 5 day",1.87 mg/dL
same,ABSOLUTE BASOPHIL,"[…], time 14 day",0 CELLS/uL
same,ABSOLUTE EOSINOPHIL,"[…], time 14 day",83.2 CELLS/uL
same,ABSOLUTE LYMPHOCYTE,"[…], time 14 day",19196.8 CELLS/uL
same,ABSOLUTE MONOCYTE,"[…], time 14 day",524.8 CELLS/uL
same,ABSOLUTE SEGMENTED NEUTROPHIL,"[…], time 14 day",2275.2 CELLS/uL
same,BASOPHIL,"[…], time 14 day",0%
same,EOSINOPHIL,"[…], time 14 day",0.4%
same,ERYTHROCYTE COUNT,"[…], time 14 day",3.73 x10E6/uL
same,HEMATOCRIT,"[…], time 14 day",34.9%
same,HEMOGLOBIN,"[…], time 14 day",13.26 G/DL
same,LEUKOCYTE COUNT,"[…], time 14 day",22.08 x10E3/uL
same,LYMPHOCYTE,"[…], time 14 day",86.8%
same,MEAN CORPUSCULAR HEMOGLOBIN,"[…], time 14 day",35.82 pg
same,MEAN CORPUSCULAR HEMOGLOBIN CONCENTRATION,"[…], time 14 day",38.02 G/DL
same,MEAN CORPUSCULAR VOLUME,"[…], time 14 day",94.18 fL
same,MONOCYTE,"[…], time 14 day",2.4%
same,NEUTROPHIL,"[…], time 14 day",10.4%
same,NUCLEATED RED BLOOD CELLS,"[…], time 14 day",1 /100WBC
same,PLATELET COUNT,"[…], time 14 day",846.6 x10E3/uL
same,ALANINE AMINOTRANSFERASE,"[…], time 14 day",56.6 u/L
same,ALBUMIN,"[…], time 14 day",4.38 G/DL
same,ALKALINE PHOSPHATASE,"[…], time 14 day",320.6 u/L
same,ASPARTATE AMINOTRANSFERASE,"[…], time 14 day",128 u/L
same,BLOOD UREA NITROGEN,"[…], time 14 day",15.4 mg/dL
same,CARBON DIOXIDE,"[…], time 14 day",29.8 mmol/L
same,CHLORIDE,"[…], time 14 day",103.2 MEQ/L
same,CHOLESTEROL,"[…], time 14 day",57 mg/dL
same,CREATININE,"[…], time 14 day",0.22 mg/dL
same,GLUCOSE,"[…], time 14 day",123.8 mg/dL
same,LACTATE DEHYDROGENASE,"[…], time 14 day",440.6 u/L
same,LIPASE,"[…], time 14 day",9.6 u/L
same,PHOSPHORUS,"[…], time 14 day",10.5 mg/dL
same,POTASSIUM,"[…], time 14 day",6.12 MEQ/L
same,SODIUM,"[…], time 14 day",148.96 MEQ/L
same,TOTAL BILIRUBIN,"[…], time 14 day",0.54 mg/dL
same,TOTAL PROTEIN,"[…], time 14 day",6.16 G/DL
same,URIC ACID,"[…], time 14 day",1.72 mg/dL
